From patent US20260028354A1, “TETRAHYDRONAPHTHALENE DERIVATIVES AS ESTROGEN RECEPTOR DEGRADERS” (REGENT OF THE UNIVERSITY OF MICHIGAN, priority 2022, published 2026)
Like-named read-outs stand apart in the source and are kept apart here.

Key:
CRBN/DDB1 = CRBN/DDB1 (Homo sapiens (Human), UniProt Q96SW2); type: binding; conditions: His tagged CRBN+DDB1, Cy5-labeled Thalidomide probe, one hour; read-out: CRBN HTRF IC50
Procedure: The binding potency was determined using HTRF assay technology (Perkin Elmer). Compounds were serially diluted in DMSO and […] volume was transferred to white 384-well plate.

ER in MCF-7 cells = ER in MCF-7 cells (Homo sapiens (Human), UniProt P03372); assay: In-cell Western (ICW) ER degradation assay in MCF-7 cells; type: cell-based; conditions: for DC50: MCF-7, ER degradation, read-out: MCF7 DC50
ER in MCF-7 cells, sequence (P03372 whole entry): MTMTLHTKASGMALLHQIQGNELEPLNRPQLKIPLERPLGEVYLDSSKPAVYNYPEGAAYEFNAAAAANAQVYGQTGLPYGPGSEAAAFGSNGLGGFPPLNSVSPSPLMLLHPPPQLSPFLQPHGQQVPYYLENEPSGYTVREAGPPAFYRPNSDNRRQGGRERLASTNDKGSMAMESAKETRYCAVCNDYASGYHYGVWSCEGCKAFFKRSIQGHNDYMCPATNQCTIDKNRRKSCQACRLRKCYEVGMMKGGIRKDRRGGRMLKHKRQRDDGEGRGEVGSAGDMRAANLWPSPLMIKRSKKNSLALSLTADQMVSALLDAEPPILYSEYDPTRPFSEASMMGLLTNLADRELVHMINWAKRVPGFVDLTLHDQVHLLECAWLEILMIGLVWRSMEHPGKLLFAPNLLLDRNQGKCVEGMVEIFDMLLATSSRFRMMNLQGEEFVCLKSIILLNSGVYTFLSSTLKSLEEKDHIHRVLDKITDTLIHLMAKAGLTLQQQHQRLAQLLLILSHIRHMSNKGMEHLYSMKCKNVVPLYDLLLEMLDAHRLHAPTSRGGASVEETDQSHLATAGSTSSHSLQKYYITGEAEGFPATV

ER = ER (Homo sapiens (Human), UniProt P03372); assay: In-cell western blot analysis of ER for "B" compounds; type: cell-based; conditions: 16 hours, read-out: ICW DC50
ER, sequence (P03372 whole entry): as above
Summary of the method: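 ER levels given as a percentage of untreated/DMSO-treated wells (100%). Detection used primary antibodies for 2 h at room temperature followed by 680 and 800 nm fluorescent secondaries at 1:1000 for 1 h, read by LI-COR imaging.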

[1] = Cell growth assay (WST-8) for "B" compounds; type: cell-based; conditions: T47D, read-out: Cell growth Inhibition in T47D cell line IC50
Summary of the method: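 Four-day compound exposure of cells plated at 1500/well the day before. Read-out is WST-8 (10%, 2.5 h, 37 °C) absorbance at 450 nm, normalized to vehicle control over three independent repeats.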

[2] = MCF7, MCF-7, maximal ER degradation, 16 hrs treatment, read-out: MCF7 Dmax

CRBN/DDB1, sequence (Q96SW2 whole entry, species assumed): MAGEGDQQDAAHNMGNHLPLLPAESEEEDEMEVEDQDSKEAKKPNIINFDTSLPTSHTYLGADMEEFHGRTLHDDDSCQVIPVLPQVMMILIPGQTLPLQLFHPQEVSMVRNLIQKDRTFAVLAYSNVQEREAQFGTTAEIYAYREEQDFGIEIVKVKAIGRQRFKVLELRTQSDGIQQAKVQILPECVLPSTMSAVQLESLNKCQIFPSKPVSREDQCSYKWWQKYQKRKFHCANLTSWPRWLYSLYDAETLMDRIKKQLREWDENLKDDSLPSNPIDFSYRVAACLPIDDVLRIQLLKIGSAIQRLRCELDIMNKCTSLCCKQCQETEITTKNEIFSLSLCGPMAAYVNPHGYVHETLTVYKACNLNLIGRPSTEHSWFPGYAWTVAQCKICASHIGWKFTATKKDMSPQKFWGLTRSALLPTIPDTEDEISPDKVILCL
CRBN/DDB1, sequence (Q16531 whole entry partner, species assumed): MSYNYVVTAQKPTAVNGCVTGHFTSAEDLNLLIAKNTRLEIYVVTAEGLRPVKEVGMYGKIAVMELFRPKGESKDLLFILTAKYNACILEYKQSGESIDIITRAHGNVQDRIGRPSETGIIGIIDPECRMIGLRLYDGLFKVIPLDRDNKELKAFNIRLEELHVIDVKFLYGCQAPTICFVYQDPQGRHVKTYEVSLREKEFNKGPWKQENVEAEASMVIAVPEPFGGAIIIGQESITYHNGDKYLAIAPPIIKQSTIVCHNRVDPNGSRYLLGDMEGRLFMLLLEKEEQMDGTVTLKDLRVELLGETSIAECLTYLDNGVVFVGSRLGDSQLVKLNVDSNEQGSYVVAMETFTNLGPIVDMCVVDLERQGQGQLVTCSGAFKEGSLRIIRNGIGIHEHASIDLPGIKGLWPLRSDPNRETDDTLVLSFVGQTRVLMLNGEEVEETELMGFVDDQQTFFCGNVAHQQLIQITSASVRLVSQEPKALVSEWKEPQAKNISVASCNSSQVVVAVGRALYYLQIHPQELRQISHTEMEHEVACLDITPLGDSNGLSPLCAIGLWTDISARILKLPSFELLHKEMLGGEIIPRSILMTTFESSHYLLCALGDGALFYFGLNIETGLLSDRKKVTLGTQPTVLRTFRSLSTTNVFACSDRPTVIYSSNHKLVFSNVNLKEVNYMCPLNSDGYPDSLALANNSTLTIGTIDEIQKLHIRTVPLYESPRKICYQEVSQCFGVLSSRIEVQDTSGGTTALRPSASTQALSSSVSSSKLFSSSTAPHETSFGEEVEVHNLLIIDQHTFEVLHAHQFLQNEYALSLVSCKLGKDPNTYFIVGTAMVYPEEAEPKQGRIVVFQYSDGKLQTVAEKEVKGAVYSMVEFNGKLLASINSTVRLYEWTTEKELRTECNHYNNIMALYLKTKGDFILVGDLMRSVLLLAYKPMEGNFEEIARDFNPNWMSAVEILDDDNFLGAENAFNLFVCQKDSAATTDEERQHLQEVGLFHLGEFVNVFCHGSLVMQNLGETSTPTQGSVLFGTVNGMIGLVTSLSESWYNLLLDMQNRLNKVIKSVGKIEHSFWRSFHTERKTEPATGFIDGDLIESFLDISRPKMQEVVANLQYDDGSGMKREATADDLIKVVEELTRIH

Row | SMILES | DC50 (ER) [nM] | IC50 ([1]; T47D cell line) [nM] | also measured
1 | O=C1CC[C@H](N2Cc3c(ccc4c3OCC43CCN(CC4CCC5(CC4)CN(c4ccc([C@H]6c7ccc(O)cc7CC[C@H]6c6ccccc6)cc4F)C5)CC3)C2=O)C(=O)N1 [Compound A160, (S)-3-(1′-((2-(2-fluoro-4-((1S, 2R)-6-hydroxy-2-phenyl-1,2,3,4-tetrahydronaphthalen-1-yl)phenyl)-2-azaspiro[3.5]nonan-7-yl)methyl)-6-oxo-6,8-dihydro-2H,7H-spiro[furo[2,3-c]isoindolc-3,4′-pipcridin]-7-yl)pipcridinc-2,6-dione] |  |  | IC50 (CRBN/DDB1): 50 to 500 nM; Dmax (ER in MCF-7 cells; MCF7, read-out: MCF7 Dmax, MCF-7, maximal ER degradation, 16 hrs treatment): 50 to 75%; DC50 (ER in MCF-7 cells; 16 hrs treatment): 10 to 100 nM
2 | O=C1CC[C@H](N2Cc3c(ccc4c3OC[C@H]3CN(CC5CCC6(CC5)CN(c5ccc([C@H]7c8ccc(O)cc8CC[C@H]7c7ccccc7)cc5F)C6)CCN43)C2=O)C(=O)N1 (single isomer, unassigned) [Compound A159] |  |  | IC50 (CRBN/DDB1): 50 to 500 nM; Dmax (ER in MCF-7 cells; [2]): 25 to 50%; DC50 (ER in MCF-7 cells; 16 hrs treatment): 10 to 100 nM
3 | COc1cc(N2CCC3(CC2)CC(CN2CCN4c5ccc6c(c5OC[C@H]4C2)CN([C@H]2CCC(=O)N(C)C2=O)C6=O)C3)ccc1[C@@H]1c2ccc(O)cc2CC[C@@H]1c1ccccc1 (single isomer, unassigned) [Compound A132] |  |  | IC50 (CRBN/DDB1): 500 to 5000 nM; Dmax (ER in MCF-7 cells; [2]): 50 to 75%; DC50 (ER in MCF-7 cells; 16 hrs treatment): 1 to 10 nM
4 | O=C1CC[C@H](N2Cc3cc4c(cc3C2=O)OC[C@@H]2CN(CC3CCC5(CC3)CN(c3ccc([C@@H]6c7ccc(O)cc7CC[C@@H]6c6ccccc6)cc3)C5)CCN42)C(=O)N1 (single isomer, unassigned) [Compound A63] |  |  | IC50 (CRBN/DDB1): 500 to 5000 nM
5 | O=C1CCC(N2Cc3cc4c(cc3C2=O)OC[C@@H]2CN(CC(=O)N3CCC5(CC3)CCN(c3ccc([C@H]6c7ccc8[nH]ncc8c7CC[C@H]6c6ccccc6)cc3)CC5)CCN42)C(=O)N1 (stereo partly drawn) [Compound B390, 3-((S)-8-oxo-3-(2-oxo-2-(9-(4-((6S,7R)-7-phenyl-6,7,8,9-tetrahydro-3H-benzo[e]indazol-6-yl)phenyl)-3,9-diazaspiro[5.5]undecan-3-yl)ethyl)-1,2,3,4,4a,5,8,10-octahydro-9H-pyrazino[1′,2′:4,5][1,4]oxazino[2,3-f]isoindol-9-yl)piperidine-2,6-dione] | 10 to 100 | > 10 | 
6 | O=C1CCC(N2Cc3cc4c(cc3C2=O)OC[C@@H]2CN(C3CN(CC5CCN(c6ccc([C@@H]7c8ccc(O)cc8CC[C@@H]7c7ccccc7)cc6)CC5)C3)CCN42)C(=O)N1 (stereo partly drawn) [Compound B164, 3-((S)-3-(1-((1-(4-((1R,2S)-6-hydroxy-2-phenyl-1,2,3,4-tetrahydronaphthalen-1-yl)phenyl)piperidin-4-yl)methyl)azetidin-3-yl)-8-oxo-1,2,3,4,4a,5,8,10-octahydro-9H-pyrazino[1′,2′:4,5][1,4]oxazino[2,3-f]isoindol-9-yl)piperidine-2,6-dione] | < 10 | 1 to 10 | 
7 | O=C1CCC(N2Cc3cc4c(cc3C2=O)OC[C@@H]2CN(CC3CC5(CCN(c6ccc([C@@H]7c8ccc(O)cc8CC[C@@H]7c7ccccc7)cc6)C5)C3)CCN42)C(=O)N1 (stereo partly drawn) [Compound B233, 3-((S)-3-((6-(4-((1R,2S)-6-hydroxy-2-phenyl-1,2,3,4-tetrahydronaphthalen-1-yl)phenyl)-6-azaspiro[3.4]octan-2-yl)methyl)-8-oxo-1,2,3,4,4a,5,8,10-octahydro-9H-pyrazino[1′,2′:4,5][1,4]oxazino[2,3-f]isoindol-9-yl)piperidine-2,6-dione] | > 100 | 1 to 10 | 
8 | O=C1CCC(N2Cc3c(ccc4c3OC[C@H]3CN(C(=O)CN5CC(Oc6ccc([C@@H]7c8ccc(O)cc8CC[C@@H]7c7ccccc7)cc6)C5)CCN43)C2=O)C(=O)N1 (stereo partly drawn) [Compound B245, 3-((R)-7-(2-(3-(4-((1R,2S)-6-hydroxy-2-phenyl-1,2,3,4-tetrahydronaphthalen-1-yl)phenoxy)azetidin-1-yl)acetyl)-1-oxo-1,3,5,5a,6,7,8,9-octahydro-2H-pyrazino[1′,2′:4,5][1,4]oxazino[2,3-e]isoindol-2-yl)piperidine-2,6-dione] | 10 to 100 | < 1 | 
9 | O=C1CCC(N2Cc3c(ccc4c3OC[C@H]3CN(C(=O)CN5CC(Nc6ccc([C@@H]7c8ccc(O)cc8CC[C@@H]7c7ccccc7)cc6)C5)CCN43)C2=O)C(=O)N1 (stereo partly drawn) [Compound B250, 3-((R)-7-(2-(3-((4-((1R,2S)-6-hydroxy-2-phenyl-1,2,3,4-tetrahydronaphthalen-1-yl)phenyl)amino)azetidin-1-yl)acetyl)-1-oxo-1,3,5,5a,6,7,8,9-octahydro-2H-pyrazino[1′,2′:4,5][1,4]oxazino[2,3-e]isoindol-2-yl)piperidine-2,6-dione] | 10 to 100 | < 1 | 
10 | CN(C(=O)c1ccc2c(n1)OC[C@H]1CN(CC3COC4(CCN(c5ccc([C@@H]6c7ccc(O)cc7CC[C@@H]6c6ccccc6)cc5)CC4)C3)CCN21)C1CCC(=O)NC1=O (stereo partly drawn) [Compound B237, (4aR)-N-(2,6-dioxopiperidin-3-yl)-3-((8-(4-((1R,2S)-6-hydroxy-2-phenyl-1,2,3,4-tetrahydronaphthalen-1-yl)phenyl)-1-oxa-8-azaspiro[4.5]decan-3-yl)methyl)-N-methyl-1,2,3,4,4a,5-hexahydropyrazino[1,2-d]pyrido[2,3-b][1,4]oxazine-8-carboxamide] | > 100 | 1 to 10 | 
11 | O=C1CCC(N2Cc3c(ccc4c3OCCC43CCN(CC4CCN(c5ccc([C@@H]6c7ccc(O)cc7CC[C@@H]6c6ccccc6)cc5)CC4)CC3)C2=O)C(=O)N1 (stereo partly drawn) [Compound B165, 3-(1-((1-(4-((1R,2S)-6-hydroxy-2-phenyl-1,2,3,4-tetrahydronaphthalen-1-yl)phenyl)piperidin-4-yl)methyl)-7′-oxo-2′,3′,7′,9′-tetrahydro-8′H-spiro[piperidine-4,4′-pyrano[2,3-e]isoindol]-8′-yl)piperidine-2,6-dione] | > 100 |  | IC50 [1]: < 1 nM
12 | O=C1CCC(N2Cc3cc4c(cc3C2=O)OC[C@@H]2CN(C(=O)CN3CC5(CC(Nc6ccc([C@@H]7c8ccc(O)cc8CC[C@@H]7c7ccccc7)cc6)C5)C3)CCN42)C(=O)N1 (stereo partly drawn) [Compound B155, 3-((S)-3-(2-(6-((4-((1R,2S)-6-hydroxy-2-phenyl-1,2,3,4-tetrahydronaphthalen-1-yl)phenyl)amino)-2-azaspiro[3.3]heptan-2-yl)acetyl)-8-oxo-1,2,3,4,4a,5,8,10-octahydro-9H-pyrazino[1′,2′:4,5][1,4]oxazino[2,3-f]isoindol-9-yl)piperidine-2,6-dione] | < 10 | < 1 | 
13 | O=C1CCC(Nc2ccc(C3CCN(CC4COC5(CN(c6ccc([C@@H]7c8ccc(O)cc8CC[C@@H]7c7ccccc7)cc6)C5)OC4)CC3)cc2)C(=O)N1 (stereo partly drawn) [Compound B339, 3-((4-(1-((2-(4-((1R,2S)-6-hydroxy-2-phenyl-1,2,3,4-tetrahydronaphthalen-1-yl)phenyl)-5,9-dioxa-2-azaspiro[3.5]nonan-7-yl)methyl)piperidin-4-yl)phenyl)amino)piperidine-2,6-dione] | > 100 | 1 to 10 | 
14 | O=C1CCC(N2Cc3c(ccc4c3OCC43CCN(CC(=O)N4CC5(CCN(c6ccc([C@@H]7c8ccc(O)cc8CC[C@@H]7c7ccccc7)cc6)CC5)C4)CC3)C2=O)C(=O)N1 (stereo partly drawn) [Compound B171, 3-(1′-(2-(7-(4-((1R,2S)-6-hydroxy-2-phenyl-1,2,3,4-tetrahydronaphthalen-1-yl)phenyl)-2,7-diazaspiro[3.5]nonan-2-yl)-2-oxoethyl)-6-oxo-6,8-dihydro-2H,7H-spiro[furo[2,3-e]isoindole-3,4′-piperidin]-7-yl)piperidine-2,6-dione] | < 10 |  | IC50 [1]: < 1 nM
